Legend:
rat 5-HT7 receptor = rat 5-HT7 receptor (Rattus norvegicus (Rat), UniProt P32305); assay: r5-HT7 binding assay, competitive radioligand binding with [3H]5-CT; details: rat 5-HT7, HEK-293 membranes
Method in brief: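 Whole r5-HT7-transfected HEK-293 cells first received test compound for 10 min. They were then exposed to 100 nM 5-CT for 20 min before lysis and competitive immunoassay of cAMP. Affinity came from displacement of [3H]5-CT on membranes of the same recombinant line, expressed as Ki.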

human SERT = human SERT (Homo sapiens (Human), UniProt P31645); assay: human SERT binding assay with [3H]-citalopram on HEK-293 membranes; details: read-out: hSERT binding Ki
h5HT2A = h5HT2A (Homo sapiens (Human), UniProt P28223); assay: h5HT2A binding
h5HT2B = h5HT2B (Homo sapiens (Human), UniProt P41595); assay: h5HT2B binding
h5HT2C = h5HT2C (Homo sapiens (Human), UniProt P28335); assay: h5HT2C binding
Sequence of h5HT2C (P28335 33-458): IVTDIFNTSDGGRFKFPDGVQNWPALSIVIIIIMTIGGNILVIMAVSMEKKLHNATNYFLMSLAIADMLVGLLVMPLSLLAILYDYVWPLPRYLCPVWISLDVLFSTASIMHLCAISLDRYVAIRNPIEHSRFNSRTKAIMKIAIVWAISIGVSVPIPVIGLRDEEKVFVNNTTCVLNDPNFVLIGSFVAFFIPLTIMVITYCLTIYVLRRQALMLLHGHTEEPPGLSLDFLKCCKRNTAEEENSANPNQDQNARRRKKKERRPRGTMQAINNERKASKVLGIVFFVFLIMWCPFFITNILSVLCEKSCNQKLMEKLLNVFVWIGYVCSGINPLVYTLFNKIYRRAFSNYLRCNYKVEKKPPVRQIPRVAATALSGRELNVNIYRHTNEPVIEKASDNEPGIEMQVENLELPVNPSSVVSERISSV

Sequence of h5HT2A (P28223 whole entry): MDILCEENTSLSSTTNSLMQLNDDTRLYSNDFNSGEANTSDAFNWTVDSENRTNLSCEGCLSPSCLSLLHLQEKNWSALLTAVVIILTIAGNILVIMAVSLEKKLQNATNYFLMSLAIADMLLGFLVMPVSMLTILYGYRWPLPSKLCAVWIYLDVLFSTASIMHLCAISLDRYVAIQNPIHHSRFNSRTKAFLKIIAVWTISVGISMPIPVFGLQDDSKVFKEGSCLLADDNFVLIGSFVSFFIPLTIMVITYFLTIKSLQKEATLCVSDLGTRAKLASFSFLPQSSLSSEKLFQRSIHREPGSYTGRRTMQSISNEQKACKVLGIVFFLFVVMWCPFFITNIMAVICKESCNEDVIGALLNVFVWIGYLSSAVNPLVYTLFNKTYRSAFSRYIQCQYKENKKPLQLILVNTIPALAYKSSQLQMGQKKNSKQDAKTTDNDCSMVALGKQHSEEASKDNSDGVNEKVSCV
Sequence of h5HT2B (P41595 whole entry): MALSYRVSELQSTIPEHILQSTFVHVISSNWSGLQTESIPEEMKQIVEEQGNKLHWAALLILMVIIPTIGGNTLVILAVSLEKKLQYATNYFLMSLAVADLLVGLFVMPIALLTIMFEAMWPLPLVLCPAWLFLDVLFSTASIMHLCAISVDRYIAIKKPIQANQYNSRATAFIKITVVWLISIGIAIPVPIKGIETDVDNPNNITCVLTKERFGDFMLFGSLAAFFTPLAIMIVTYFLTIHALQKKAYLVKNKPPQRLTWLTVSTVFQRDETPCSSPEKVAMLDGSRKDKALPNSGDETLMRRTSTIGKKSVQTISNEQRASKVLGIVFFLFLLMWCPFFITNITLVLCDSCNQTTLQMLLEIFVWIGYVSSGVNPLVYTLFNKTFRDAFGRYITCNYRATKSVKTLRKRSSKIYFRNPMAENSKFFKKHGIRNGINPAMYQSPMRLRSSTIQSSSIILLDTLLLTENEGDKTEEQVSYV
Sequence of rat 5-HT7 receptor (P32305 1-435): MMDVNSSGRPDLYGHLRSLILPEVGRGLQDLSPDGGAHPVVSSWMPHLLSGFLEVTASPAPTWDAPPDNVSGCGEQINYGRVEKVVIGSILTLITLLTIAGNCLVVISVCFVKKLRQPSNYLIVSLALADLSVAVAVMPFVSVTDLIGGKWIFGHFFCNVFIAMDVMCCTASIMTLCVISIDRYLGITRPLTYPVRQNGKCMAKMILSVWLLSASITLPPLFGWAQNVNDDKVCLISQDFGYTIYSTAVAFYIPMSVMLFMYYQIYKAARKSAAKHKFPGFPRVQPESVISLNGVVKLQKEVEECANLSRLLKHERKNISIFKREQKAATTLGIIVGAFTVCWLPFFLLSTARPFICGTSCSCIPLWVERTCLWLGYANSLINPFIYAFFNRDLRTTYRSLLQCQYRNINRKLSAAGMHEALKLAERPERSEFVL
Sequence of human SERT (P31645 whole entry): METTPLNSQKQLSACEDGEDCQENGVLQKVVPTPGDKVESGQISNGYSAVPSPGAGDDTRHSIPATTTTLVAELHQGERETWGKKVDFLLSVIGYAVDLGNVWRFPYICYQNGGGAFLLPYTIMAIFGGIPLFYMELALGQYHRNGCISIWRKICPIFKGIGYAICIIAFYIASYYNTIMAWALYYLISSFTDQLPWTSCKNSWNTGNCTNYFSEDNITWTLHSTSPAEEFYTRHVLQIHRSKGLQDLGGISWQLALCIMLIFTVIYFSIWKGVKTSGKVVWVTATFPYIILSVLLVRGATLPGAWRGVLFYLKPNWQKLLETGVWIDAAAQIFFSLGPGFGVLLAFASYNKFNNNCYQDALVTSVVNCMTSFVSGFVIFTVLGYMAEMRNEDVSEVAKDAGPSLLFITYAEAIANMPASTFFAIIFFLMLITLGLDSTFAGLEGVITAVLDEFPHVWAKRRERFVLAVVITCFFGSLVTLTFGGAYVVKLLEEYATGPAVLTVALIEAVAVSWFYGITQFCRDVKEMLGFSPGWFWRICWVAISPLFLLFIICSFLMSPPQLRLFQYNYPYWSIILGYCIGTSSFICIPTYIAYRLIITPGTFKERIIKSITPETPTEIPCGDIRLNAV

| SMILES | Ki (rat 5-HT7 receptor) [nM] | Ki (human SERT) [nM] | Ki (h5HT2A) [nM] | Ki (h5HT2B) [nM] | Ki (h5HT2C) [nM] |
| --- | --- | --- | --- | --- | --- |
| CC1(Oc2cc(Br)ccc2OCCc2ccccc2)CNC1 [Example 215, 3-(5-Bromo-2-phenethyloxy-phenoxy)-3-methyl-azetidine] | 11 | 44 | 6 | 17 | 26 |
| Cc1cc(Oc2cc(Cl)ccc2O[C@H]2CCNC2)ccc1F [Example 274, (S)-3-[4-Chloro-2-(4-fluoro-3-methyl-phenoxy)-phenoxy]-pyrrolidine] | 8600 | – | 100 | 170 | 230 |
| Clc1ccc(Oc2cc(Cl)ccc2O[C@H]2CCNC2)cc1 [Example 275, (S)-3-[4-Chloro-2-(4-chloro-phenoxy)-phenoxy]-pyrrolidine] | > 10000 | – | 530 | 910 | 220 |
| Clc1cccc(Oc2cc(Cl)ccc2O[C@H]2CCNC2)c1 [Example 276, (S)-3-[4-Chloro-2-(3-chloro-phenoxy)-phenoxy]-pyrrolidine] | > 10000 | – | 84 | 190 | 120 |
| Clc1ccc(O[C@H]2CCNC2)c(Oc2ccc(Br)cc2)c1 [Example 277, (S)-3-[2-(4-Bromo-phenoxy)-4-chloro-phenoxy]-pyrrolidine] | 5500 | – | 410 | 270 | 120 |
| CC(C)c1ccc(Oc2cc(Cl)ccc2O[C@H]2CCNC2)cc1 [Example 278, (S)-3-[4-Chloro-2-(4-isopropyl-phenoxy)-phenoxy]-pyrrolidine] | > 10000 | – | 1400 | 1300 | 330 |

From patent publication US9981909B2 (Janssen Pharmaceutica NV, priority 2008, dated 2018)
